Test results from patent US11564928B1, “Cannabinoid receptor type 2 (CB2) modulators and uses thereof” (Teon Therapeutics, Inc., priority 2020, dated 2023).
Read-outs that look alike come from different tables or passages of the source.

What was measured:
[1] = target: T1, human CB2 receptor (Homo sapiens (Human), UniProt P34972); test: CB2 receptor binding assay ([3H]CP-55,940 displacement, HEK-293 membranes); conditions: membranes of HEK-293 cells with human recombinant CB2R, [3H]CP-55,940, read-out: CB2 IC50
T1 sequence (P34972 whole entry): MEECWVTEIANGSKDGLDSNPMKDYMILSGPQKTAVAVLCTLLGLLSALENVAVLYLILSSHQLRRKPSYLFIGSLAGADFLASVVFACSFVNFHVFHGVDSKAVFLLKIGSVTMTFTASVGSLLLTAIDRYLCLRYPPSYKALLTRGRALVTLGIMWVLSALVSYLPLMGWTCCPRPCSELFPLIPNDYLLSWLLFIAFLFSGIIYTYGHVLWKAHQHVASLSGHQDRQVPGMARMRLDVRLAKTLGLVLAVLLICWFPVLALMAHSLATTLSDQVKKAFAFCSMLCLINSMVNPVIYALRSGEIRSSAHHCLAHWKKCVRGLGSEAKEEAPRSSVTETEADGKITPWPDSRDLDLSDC

[2] = target: T1, human CB2 receptor; test: CB2 receptor cAMP assay (DiscoverX HitHunter cAMP XS+); type: cell-based
Method: cAMP Hunter CHO-K-1 cell lines expressing human CB2 receptor (Eurofins) were expanded from freezer stocks according to standard procedures. Cells were seeded in a total volume of 20 μL into white walled, 384-well microplates and incubated at 37° C. for the appropriate time prior to testing. cAMP modulation in agonist, inverse agonist or antagonist format was determined using the DiscoverX HitHunter cAMP XS+ assay (Eurofins). For agonist determination, cells were incubated with sample in the presence of EC80 forskolin to induce response. Media was aspirated from cells and replaced with 15 μL 2:1 HBSS/10 mM Hepes: cAMP XS+Ab reagent. Intermediate dilution of sample stocks was performed to generate 4× sample in assay buffer containing 4× EC80 forskolin. 5 μL of 4× sample was added to cells and incubated at 37° C. or room temperature for 30 or 60 minutes. Final assay vehicle concentration was 1%. For inverse agonist determination, cells were preincubated with sample in the presence of EC20 forskolin. Media was aspirated from cells and replaced with 15 μL, 2:1 HBSS/10 mM Hepes: cAMP XS+Ab reagent. Intermediate dilution of sample stocks was performed to generate 4× sample in assay buffer containing 4× EC20 forskolin. 5 μL of 4× sample was added to cells and incubated at 37° C. or room temperature for 30 or 60 minutes. Final assay vehicle concentration was 1%. For antagonist determination, cells were pre-incubated with sample followed by agonist challenge at the EC80 concentration. Media was aspirated from cells and replaced with 10 μL 1:1 HBSS/Hepes: cAMP XS+Ab reagent. 5 μL of 4× compound was added to the cells and incubated at 37° C. or room temperature for 30 minutes. 5 μL of 4× EC80 agonist was added to cells and incubated at 37° C. or room temperature for 30 or 60 minutes. EC80 forksolin was included. After appropriate compound incubation, assay signal was generated through incubation with 20 μL cAMP XS+ED/CL lysis cocktail for one hour followed by incubation with 20 μL, cAMP XS+EA reagent for three hours at room temperature. Microplates were read following signal generation with a PerkinElmer Envision instrument for chemiluminescent signal detection. Compound activity was analyzed using CBIS data analysis suite (ChemInnovation, CA). For agonist mode assay, percentage activity is calculated using the following formula: % Activity=100%×(1−(mean RLU of test sample−mean RLU of MAX control)/(mean RLU of vehicle control−mean RLU of MAX control)). For inverse agonist mode assay, percentage activity is calculated using the following formula: % Inverse Agonist Activity=100%×((mean RLU of test sample−mean RLU of EC20 forskolin)/(mean RLU of forskolin positive control−mean RLU of EC20 control)). For antagonist mode assay, percentage inhibition is calculated using the following formula: % Inhibition=100%×(mean RLU of test sample−mean RLU of EC80 control)/(mean RLU of forskolin positive control−mean RLU of EC80 control). Data are analyzed and IC50 is calculated using GraphPad Prism 5 and the model “log(inhibitor) vs. response—Variable slope”.

[3] = target: human recombinant CB1R (Homo sapiens (Human), UniProt P21554); test: CB1 receptor binding assay ([3H]CP-55,940 displacement, HEK-293 membranes); conditions: membranes of HEK-293 cells with human recombinant CB1R, [3H]CP-55,940, read-out: CB1 IC50
Sequence of human recombinant CB1R (P21554 whole entry): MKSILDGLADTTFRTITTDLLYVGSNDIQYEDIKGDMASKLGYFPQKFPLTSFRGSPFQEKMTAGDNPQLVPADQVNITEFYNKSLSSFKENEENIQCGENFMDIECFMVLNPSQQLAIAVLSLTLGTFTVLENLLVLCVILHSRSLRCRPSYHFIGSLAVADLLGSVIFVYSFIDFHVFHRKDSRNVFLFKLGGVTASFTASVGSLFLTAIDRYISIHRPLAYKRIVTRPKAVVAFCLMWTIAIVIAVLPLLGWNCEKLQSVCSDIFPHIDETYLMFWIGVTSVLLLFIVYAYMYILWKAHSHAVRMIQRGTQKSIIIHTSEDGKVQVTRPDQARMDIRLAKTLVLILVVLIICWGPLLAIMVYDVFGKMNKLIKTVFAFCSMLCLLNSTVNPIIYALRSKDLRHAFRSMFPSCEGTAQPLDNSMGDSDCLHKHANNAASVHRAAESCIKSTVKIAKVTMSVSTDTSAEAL
Procedure, shortened: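 Displacement of [3H]CP-55,940 was measured on human CB1R- or CB2R-transfected HEK-293 membranes after 120 min at 37 °C, in duplicate, with filtration and scintillation counting. For CB2R, incubation used Tris-HCl 50 mM, MgCl2 5 mM, CaCl2 1 mM, BSA 0.2%, pH 7.4. Ki values were derived from variable-slope IC50 fits using Cheng–Prusoff.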

[4] = CHO-K1, read-out: Max Stimulation %
[5] = CHO-K1, cAMP Hunter CHO-K-1 cells expressing human CB2 receptor, read-out: Max Stimulation %
[6] = cAMP Hunter CHO-K-1 cells expressing human CB2 receptor, read-out: cAMP IC50

Structure (SMILES)	IC50 ([1]; class symbols)	IC50 [2]	Emax [2, 4]	IC50 ([3]; class symbols)	IC50 [1]	IC50 [3]	Emax [2, 5]	IC50 [2, 6]
CC(NC(=O)c1cc2cc(-c3ccc(C#N)cc3)cnc2n(CCN2CCOCC2)c1=O)c1ccc(F)cc1 (centres unmarked) [Compound 45, 6-(4-cyanophenyl)-N-(1-(4-fluorophenyl)ethyl)-1-(2-morpholinoethyl)-2-oxo-1,2-dihydro-1,8-naphthyridine-3-carboxamide]	< 100 nM	15 nM	70%	> 1000 nM				
N#Cc1ccc(-c2cnc3c(c2)cc(C(=O)NC24CC(C2)C4)c(=O)n3CCN2CCOCC2)cc1 [Compound 46, N-(bicyclo[1.1.1]pentan-1-yl)-6-(4-cyanophenyl)-1-(2-morpholinoethyl)-2-oxo-1,2-dihydro-1,8-naphthyridine-3-carboxamide]		14 nM	77%		6 nM	8610 nM		
C[C@@H](NC(=O)c1cc2cc(-c3ccc(OC(F)F)cn3)cnc2n(CCN2CCOCC2)c1=O)c1ccc(F)cc1 [Compound 48, (R)-6-(5-(difluoromethoxy)pyridin-2-yl)-N-(1-(4-fluorophenyl)ethyl)-1-(2-morpholinoethyl)-2-oxo-1,2-dihydro-1,8-naphthyridine-3-carboxamide]					4.5 nM	> 10000 nM	66%	0.2 nM
COc1ccc(-c2cnc3c(c2)cc(C(=O)NC24CC(C2)C4)c(=O)n3CCN2CCOCC2)cc1 [Compound 50, N-(bicyclo[1.1.1]pentan-1-yl)-6-(4-methoxyphenyl)-1-(2-morpholinoethyl)-2-oxo-1,2-dihydro-1,8-naphthyridine-3-carboxamide]		0.6 nM	80%		4.3 nM	2780 nM		
CC1CCC(NC(=O)c2cc3cc(-c4ccc(OC(F)F)cc4)cnc3n(CCN3CCOCC3)c2=O)CC1 (centres unmarked) [Compound 51, 6-(4-(difluoromethoxy)phenyl)-N-(4-methylcyclohexyl)-1-(2-morpholinoethyl)-2-oxo-1,2-dihydro-1,8-naphthyridine-3-carboxamide]		2 nM	108%		2.1 nM	> 10000 nM		
O=C(NC1CC2(CCC2)C1)c1cc2cc(-c3ccc(OC(F)F)cc3)cnc2n(CCN2CCOCC2)c1=O [Compound 52, 6-(4-(difluoromethoxy)phenyl)-1-(2-morpholinoethyl)-2-oxo-N-(spiro[3.3]heptan-2-yl)-1,2-dihydro-1,8-naphthyridine-3-carboxamide]		1 nM	77%		10 nM	962 nM		
CC(NC(=O)c1cc2cc(-c3ccc(OC(F)F)cc3)cnc2n(CCN2CCOCC2)c1=O)c1ccc(F)cc1 (centres unmarked) [Compound 53, 6-(4-(difluoromethoxy)phenyl)-N-(1-(4-fluorophenyl)ethyl)-1-(2-morpholinoethyl)-2-oxo-1,2-dihydro-1,8-naphthyridine-3-carboxamide]	< 100 nM			> 1000 nM			85%	2 nM
CC(NC(=O)c1cc2cc(-c3ccc(OC(F)F)cn3)cnc2n(CCN2CCOCC2)c1=O)c1ccc(F)cc1 (centres unmarked) [Compound 55, 6-(5-(difluoromethoxy)pyridin-2-yl)-N-(1-(4-fluorophenyl)ethyl)-1-(2-morpholinoethyl)-2-oxo-1,2-dihydro-1,8-naphthyridine-3-carboxamide]					0.6 nM	2940 nM	84%	11 nM
CC1CCC(NC(=O)c2cc3cc(-c4ccc(C#N)cn4)cnc3n(CCN3CCOCC3)c2=O)CC1 (centres unmarked) [Compound 57, 6-(5-cyanopyridin-2-yl)-N-(4-methylcyclohexyl)-1-(2-morpholinoethyl)-2-oxo-1,2-dihydro-1,8-naphthyridine-3-carboxamide]	< 100 nM	8 nM	63%	> 1000 nM				
N#Cc1ccc(-c2cnc3c(c2)cc(C(=O)NC24CC(C2)C4)c(=O)n3CCN2CCOCC2)nc1 [Compound 59, N-(bicyclo[1.1.1]pentan-1-yl)-6-(5-cyanopyridin-2-yl)-1-(2-morpholinoethyl)-2-oxo-1,2-dihydro-1,8-naphthyridine-3-carboxamide]			75%		130 nM	> 10000 nM		119 nM
CC1CCC(NC(=O)c2cc3cc(Br)cnc3n(CCN3CCOCC3)c2=O)CC1 (centres unmarked) [Compound 61, 6-bromo-N-(4-methylcyclohexyl)-1-(2-morpholinoethyl)-2-oxo-1,2-dihydro-1,8-naphthyridine-3-carboxamide]	< 100 nM	13 nM	83%	> 1000 nM				
CC1CCC(NC(=O)c2cc3cc(-c4ccccn4)cnc3n(CCN3CCOCC3)c2=O)CC1 (centres unmarked) [Compound 62, N-(4-methylcyclohexyl)-1-(2-morpholinoethyl)-2-oxo-6-(pyridin-2-yl)-1,2-dihydro-1,8-naphthyridine-3-carboxamide]	< 100 nM	13 nM	33%	> 1000 nM				
CC1CCC(NC(=O)c2cc3cc(-c4ncccn4)cnc3n(CCN3CCOCC3)c2=O)CC1 (centres unmarked) [Compound 63, N-(4-methylcyclohexyl)-1-(2-morpholinoethyl)-2-oxo-6-(pyrimidin-2-yl)-1,2-dihydro-1,8-naphthyridine-3-carboxamide]	< 100 nM			> 1000 nM				> 1000 nM
N#Cc1ccc(-c2cnc3c(c2)cc(C(=O)NC2CC4(CCC4)C2)c(=O)n3Cc2ccc(F)cc2)nc1 [Compound 69, 6-(5-cyanopyridin-2-yl)-1-(4-fluorobenzyl)-2-oxo-N-(spiro[3.3]heptan-2-yl)-1,2-dihydro-1,8-naphthyridine-3-carboxamide]	< 100 nM	21 nM	79%	> 1000 nM				
O=C(NC12CC(C1)C2)c1cc2cc(Br)cnc2n(Cc2ccc(F)cc2)c1=O [Compound 82, N-(bicyclo[1.1.1]pentan-1-yl)-6-bromo-1-(4-fluorobenzyl)-2-oxo-1,2-dihydro-1,8-naphthyridine-3-carboxamide]	< 100 nM	1 nM	86%	> 1000 nM				
O=C(NC12CC(C1)C2)c1cc2cc(C3CC3)cnc2n(Cc2ccc(F)cc2)c1=O [Compound 83, N-(bicyclo[1.1.1]pentan-1-yl)-6-cyclopropyl-1-(4-fluorobenzyl)-2-oxo-1,2-dihydro-1,8-naphthyridine-3-carboxamide]	< 100 nM	5 nM	93%	> 1000 nM				
CC(C)c1cnc2c(c1)cc(C(=O)N[C@H](C)c1ccc(C#N)cc1)c(=O)n2Cc1ccc(F)cc1 [Compound 85, (R)—N-(1-(4-cyanophenyl)ethyl)-1-(4-fluorobenzyl)-6-isopropyl-2-oxo-1,2-dihydro-1,8-naphthyridine-3-carboxamide]		0.5 nM	93%		7.9 nM	605 nM		
CC(C)c1cnc2c(c1)cc(C(=O)N[C@H](C)c1ccc(F)cc1)c(=O)n2Cc1ccc(F)cc1 [Compound 89, (R)-1-(4-fluorobenzyl)-N-(1-(4-fluorophenyl)ethyl)-6-isopropyl-2-oxo-1,2-dihydro-1,8-naphthyridine-3-carboxamide]	< 100 nM	7 nM	92%	> 1000 nM				
